# Like-named read-outs stand apart in the source and are kept apart here.
# Assays:
# [1] = In vivo pharmacokinetic test; set-up: species or system SD rats; settings: rats
# Source text: The L-aspartate and hydrochloride according to the present invention were orally or intravenously administered to SD rats, respectively and blood samples were collected at a predetermined time to compare in vivo pharmacokinetics.
# Then, Cmax: maximum drug concentration, Tmax: maximum drug concentration time, T1/2: drug half-life, AUCO-t: area under the plasma concentration-time curve from time zero to t hours, and AUCO-inf: area under the plasma concentration-time curve from time zero to infinity.
# [2] = Stability test in distilled water; type: physicochemical; settings: 30 mg in 100 ml distilled water
# Solubility test = type: physicochemical
# [3] = test system: polychromatic erythrocyte with one or more nuclei (MNPCE); test: In vivo genotoxicity, micronucleus test; settings: male mice, twice intraperitoneal, 30, 15, 7.5 mg/kg
# Source text: The following study performed to obtain in vivo genotoxicities, micronucleus test of L-aspartate and hydrochloric acid salt in male mice to the following procedure.
# Male ICR mice = test: Single dose toxicity in mice (LD50); settings: single intraperitoneal dose, observed 14 days
# Procedure: The following experiment was performed in order to observe the degree of toxicity of the L-aspartate according to the present invention.
# Male ICR mice were used as experimental animals. 5 male ICR mice were divided into 6 dose groups, respectively and fasted except for water for 24 hours.
# [4] = In vivo tissue distribution test; set-up: species or system ICR mice; settings: mouse, po; for Kp: ICR, 100 mg/kg
# Procedure: An in vivo tissue distribution test was performed in order to confirm the degree of drug distribution of the L-aspartate and hydrochloride according to the present invention in each organ. After 8-week-old ICR mice were purchased and adapted in the laboratory, each salt was orally administered to the mouse at a dose of 100 mg/kg. The mice were bled and sacrificed at a predetermined time and each organ was drawn to measure the concentration in each organ. After the administration of hydrochloride and L-aspartate, each organ concentration over time, the area under the corresponding time-concentration curve, and the ratio of permeation into tissue were shown in Tables 5 and 6.
# Then, P ratio is a ratio of permeation into muscle and calculated as intramuscular AUC/intraplasmic AUC.
# [5] = In vivo tissue distribution test; set-up: species or system ICR mice; settings: ICR, mouse, spleen, po, 100 mg/kg; read-out: P ratio Spleen
# [6] = SD, rat, plasma, iv, i.v. 10 mg/kg
# [7] = SD, rat, plasma, po, p.o. 100 mg/kg
# [8] = male, testicle, ICR mice, p.o. 100 mg/kg, read-out: Testicle concentration
# [9] = brain, ICR mice, p.o. 100 mg/kg, read-out: Brain concentration
# [10] = heart, ICR mice, p.o. 100 mg/kg, read-out: Heart concentration
# [11] = kidney, ICR mice, p.o. 100 mg/kg, read-out: Kidney concentration
# [12] = liver, ICR mice, p.o. 100 mg/kg, read-out: Liver concentration
# [13] = lung, ICR mice, p.o. 100 mg/kg, read-out: Lung concentration
# [14] = muscle, ICR mice, p.o. 100 mg/kg, read-out: Muscle concentration
# [15] = plasma, ICR mice, p.o. 100 mg/kg, read-out: Plasma concentration
# [16] = spleen, ICR mice, p.o. 100 mg/kg, read-out: Spleen concentration
# [17] = testicle, ICR mice, p.o. 100 mg/kg, read-out: Testicle concentration
# [18] = thymus, ICR mice, p.o. 100 mg/kg, read-out: Thymus concentration
smiles,measurement,setting,value
CO/N=C1/CN(c2nc3c(cc2F)c(=O)c(C(=O)O)cn3C2CC2)C[C@@]1(C)CN [L-aspartate (Example 1)],AUC(0-inf),[1]; [6],9320 ± 280 ng·h/mL
same,AUC(0-t),[1]; [6],7520 ± 220 ng·h/mL
same,Cmax,[1]; [6],4180 ± 290 ng/mL
same,Tmax,[1]; [6],0 h
same,half-life,[1]; [6],2.05 ± 1.55 h
same,AUC(0-t),[1]; [7],52700 ± 28700 ng·h/mL
same,Cmax,[1]; [7],9080 ± 4500 ng/mL
same,Tmax,[1]; [7],2.13 ± 0.63 h
same,BA (%),"[1]; p.o. 100 mg/kg, calculated by ratio of AUC0-t",70.05%
same,Content (%) 60? (after 3 weeks),"[2]; 60?, 3 weeks",87.4%
same,Content (%) Initial,[2]; initial,98.1%
same,Content (%) Room temperature (after 3 weeks),"[2]; room temperature, 3 weeks",98.0%
same,Solubility relative to the hydrochloride,Solubility test; distilled water,about 2 times
same,solubility,"Solubility test; room temperature, water",190 mg/mL
same,MNPCE number vs intact control,[3],not detected significant change
same,Lethal dose 50,Male ICR mice,209 mg/kg
same,Kp,"[4]; brain, read-out: P ratio Brain",0.27
same,Kp,"[4]; heart, read-out: P ratio Heart",4.28
same,Kp,"[4]; kidney, read-out: P ratio Kidney",7.44
same,Kp,"[4]; liver, read-out: P ratio Liver",11.2
same,Kp,"[4]; lung, read-out: P ratio Lung",6.01
same,Kp,"[4]; muscle, read-out: P ratio Muscle",3.87
same,Kp,"[4]; thymus, read-out: P ratio Thymus",4.96
same,Kp,"[4]; male, testicle, read-out: P ratio Testicle",1.75
same,concentration at 0.5 h,[4]; [8],4940 ng/g
same,concentration at 1 h,[4]; [8],8820 ng/g
same,concentration at 8 h,[4]; [8],6970 ng/g
same,concentration at 0.5 h,[4]; [9],2280 ng/g
same,concentration at 1 h,[4]; [9],2550 ng/g
same,concentration at 1.5 h,[4]; [9],2340 ng/g
same,concentration at 2 hr,[4]; [9],2570 ng/g
same,concentration at 3 h,[4]; [9],2020 ng/g
same,concentration at 5 h,[4]; [9],1520 ng/g
same,concentration at 8 h,[4]; [9],330 ng/g
same,concentration at 0.5 h,[4]; [10],47200 ng/g
same,concentration at 1 h,[4]; [10],58000 ng/g
same,concentration at 1.5 hr,[4]; [10],50000 ng/g
same,concentration at 2 hr,[4]; [10],36700 ng/g
same,concentration at 3 h,[4]; [10],27700 ng/g
same,concentration at 5 h,[4]; [10],1330 ng/g
same,concentration at 8 h,[4]; [10],8720 ng/g
same,concentration at 0.5 h,[4]; [11],79200 ng/g
same,concentration at 1 h,[4]; [11],79200 ng/g
same,concentration at 1.5 h,[4]; [11],77400 ng/g
same,concentration at 2 hr,[4]; [11],62200 ng/g
same,concentration at 3 h,[4]; [11],48800 ng/g
same,concentration at 5 h,[4]; [11],34000 ng/g
same,concentration at 8 h,[4]; [11],20200 ng/g
same,concentration at 0.5 h,[4]; [12],128000 ng/g
same,concentration at 1 h,[4]; [12],114000 ng/g
same,concentration at 1.5 h,[4]; [12],118000 ng/g
same,concentration at 2 hr,[4]; [12],85400 ng/g
same,concentration at 3 h,[4]; [12],70800 ng/g
same,concentration at 5 h,[4]; [12],57400 ng/g
same,concentration at 8 h,[4]; [12],26600 ng/g
same,concentration at 0.5 h,[4]; [13],76300 ng/g
same,concentration at 1 h,[4]; [13],70100 ng/g
same,concentration at 1.5 h,[4]; [13],71500 ng/g
same,concentration at 2 hr,[4]; [13],52700 ng/g
same,concentration at 3 h,[4]; [13],38700 ng/g
same,concentration at 5 h,[4]; [13],24500 ng/g
same,concentration at 8 h,[4]; [13],11600 ng/g
same,concentration at 0.5 h,[4]; [14],38000 ng/g
same,concentration at 1 h,[4]; [14],39600 ng/g
same,concentration at 1.5 h,[4]; [14],37400 ng/g
same,concentration at 2 hr,[4]; [14],36700 ng/g
same,concentration at 3 h,[4]; [14],28800 ng/g
same,concentration at 5 h,[4]; [14],18000 ng/g
same,concentration at 8 h,[4]; [14],6930 ng/g
same,concentration at 0.5 h,[4]; [15],11600 ng/mL
same,concentration at 1 h,[4]; [15],12200 ng/mL
same,concentration at 1.5 h,[4]; [15],10700 ng/mL
same,concentration at 2 hr,[4]; [15],8470 ng/mL
same,concentration at 3 h,[4]; [15],6300 ng/mL
same,concentration at 5 h,[4]; [15],4620 ng/mL
same,concentration at 8 h,[4]; [15],1870 ng/mL
same,AUC(0-t),"[4]; plasma, ICR mice, p.o. 100 mg/kg, read-out: AUC0-t Plasma",47400 ng·h/mL
same,concentration at 0.5 h,[4]; [16],91600 ng/g
same,concentration at 1 h,[4]; [16],98100 ng/g
same,concentration at 1.5 hr,[4]; [16],84900 ng/g
same,concentration at 2 hr,[4]; [16],67300 ng/g
same,concentration at 3 h,[4]; [16],57600 ng/g
same,concentration at 5 h,[4]; [16],43700 ng/g
same,concentration at 8 h,[4]; [16],23400 ng/g
same,concentration at 1.5 hr,[4]; [17],10200 ng/g
same,concentration at 2 hr,[4]; [17],12900 ng/g
same,concentration at 3 h,[4]; [17],14800 ng/g
same,concentration at 5 h,[4]; [17],11500 ng/g
same,concentration at 0.5 h,[4]; [18],26500 ng/g
same,concentration at 1 h,[4]; [18],48100 ng/g
same,concentration at 1.5 hr,[4]; [18],48800 ng/g
same,concentration at 2 hr,[4]; [18],40100 ng/g
same,concentration at 3 h,[4]; [18],39800 ng/g
same,concentration at 5 h,[4]; [18],25900 ng/g
same,concentration at 8 h,[4]; [18],12800 ng/g
same,Kp,[5],8.82

# From patent US9751840B2, “R-7-(3-aminomethyl-4-methoxyimino-3-methyl-pyrrolidin-1-yl)-1-cyclopropyl-6-fluoro-4-oxo-acid and L-aspartic acid salt, process for the preparation thereof and pharmaceutical composition comprising the same for antimicrobial” (ARIBIO CO. LTD., priority 2009, dated 2017)
